The text below walks through data of patent publication US20260000763A1, “Methods of Manufacturing Therapeutic Cells” (The Board of Trustees of the Leland Stanford Junior …, priority 2022, published 2026).

In one assay the test system is CD19.28 CAR T cells. Briefly: CD19.28 CAR T cells expanded in inosine vs glucose media: Annexin V, CAR expression, CD4/CD8, memory phenotype (flow cytometry). The class given is cell-based. The method, then: In this example, CD19.28 CAR T cells were cultured in regular complete RPMI media until day 4, and then the cells were split between 11 mM glucose-(CTR) or 11 mM inosine-(INO) containing media (unless stated otherwise). A: Annexin 5 staining was performed at day 17 post-activation. Representative histograms of n=3 donors are shown. B: Surface CD19.28 CAR expression at day 14 post-activation. C: MFI of CAR molecules on CD19.28z CAR T cell surface at day 14 post activation. D: Ratio of CD4+vs CD8+CD19.28 CAR T cells at day 14 post-activation. E: CD19.28z CAR T cells were co-cultured with cells of the Nalm6 tumor line (1:8 E: T) for 75 hrs in an IncuCyte assay. […] Representative donor of n=3 is shown. F: Control media was replaced by INO+ media at the indicated day post activation. At day 14, cells were stimulated with Nalm6 tumor line, and IL-2 and IFNγ secretion was assessed by ELISA. […] For A and B, P values were determined by paired two-tailed t-tests. […] For F and G, P values were determined by unpaired two-tailed t-tests.
(§1) In this example, CAR T cells were cultured in control media until day 4 post activation, followed by continued expansion in regular or inosine-containing media. Phenotype of the cells was assessed by flow cytometry at day 21 post activation. A: Frequency of CD62L+ and CCR7+HA CAR+ T cells in 8 different donors. Representative histograms are shown. B: Relative frequency of central memory (CM), naïve, terminally differentiated (TEMRA) and effector memory (EM) HA CAR T cells. N=8 donors. C: Frequency of CD62L+ and CCR7+CD19.28 CAR+ T cells in 8 different donors. Representative histograms are shown. D: Relative frequency of central memory (CM), naïve, terminally differentiated (TEMRA) and effector memory (EM) CD19.28 CAR T cells. N=8 donors.
In this example, CD19.28 CAR T cells were generated using a retroviral vector and at day 4 post-activation, the cells were split between 11 mM glucose-(CTR) or 11 mM inosine-(INO) containing media (unless stated otherwise). Tested first was whether the absence of glucose in the culture media has a negative effect on the viability of CAR T cells.

A further assay concerns HA CAR T cells. Briefly: Phenotype of tonically signaling (exhausted) HA CAR T cells expanded in inosine media (flow cytometry, CyTOF). It counts as cell-based, human. Conditions: for CD62L expression / frequency of central memory cells: CD8+ HA-CAR T cells, day 21, INO in presence or absence of glucose. How it is done:
A: CD4+vs CD8+ ratio at day 14 post-activation. N-7 donors. P values were determined by paired two-tailed t-tests. […] C: IL-2 and IFNγ secretion at day 14 post-activation. P values were determined by unpaired two-tailed t-tests.
as §1
N=2-6 donors from independent experiments.
(Top) Dot plots of representative donor shown.
9A: Schematic of the experimental design. […] Graphs represent median expression of indicated markers. […] Representative donor of n=2 donor shown. […] Data are mean+SD from triplicate wells. […] 9K: Schematic of the experimental design. […] Representative donor of n=3 donor shown. […] Representative donor of n=2 donor shown. […] (Top) Dot plots of representative donor shown. […] Representative donor of n=3 donor shown. […] N=2-4 donors from independent experiments. […] N=2-6 donors from independent experiments. […] N=2-4 donors from independent experiments. […] (Top) representative dot plots shown.
Transcriptomic and epigenetic hallmarks of exhaustion occur within 10-12 days in the HA-CAR model. To determine if INO can induce a stem-like phenotype in already exhausted T cells, HA-CAR T cells were exposed to INO on day: 4, 7, 10 and 14 post-activation, analyzing phenotype and function (FIG. 9K).
HA-CAR T cells were cultured from day 4 post-activation in control media containing glucose (11 mM), inosine only at 11 mM (INO), media containing both inosine and glucose at 11 mM or media without glucose or inosine.
To assess whether the observed increase in stemness and functionality is attributable to inosine addition or glucose deprivation, HA-CAR T cells were cultured from day 4 post-activation in control media containing 11 mM glucose (CTR), no glucose and no inosine (starvation condition), 11 mM inosine only (INO), or media containing both inosine and glucose (FIG. 7A). Proliferation was assessed at day 10.
On the technique in general: Flow cytometry measures light scatter and fluorescence of single cells or particles in a stream.

The next assay concerns HA-CAR T cells. Briefly: Improvement index overlapped with proliferation to set a therapeutic window for inosine. The class given is cell-based, human. Conditions: 11 mM glucose plus 0.5-11 mM inosine tested; improvement index vs proliferation. The method, then: FIG. 7F: Improvement index calculation scheme.
FIG. 7G: Scatter plot showing correlation between improvement index (y-axis-in black) or proliferation (y-axis-in red) and inosine concentration (x-axis). […] N=2-6 donors from independent experiments.
To establish a therapeutic window for inosine addition, an improvement index was calculated. The index represents a sum of fold change in frequency of CCR7+CD8+ and CD62L+CD8+ at the base line and fold change in IL-2 and IFNγ secretion after 24 hours stimulation with Nalm6-GD2 tumor line by HA-CAR T cells manufactured in 11 mM of glucose and various concentrations of inosine (0.5-11 mM) as compared to control (FIG. 7F).

The test system of the next assay is CD8+ HA-CAR T cells. Description: ATACseq chromatin accessibility of CD8+ HA- and HA-INO-CAR T cells (ChromVAR, HOMER). It counts as cell-based, human. The text has this: Concatenated samples from n=3 donors. […] (Left) Dot plots of representative donor shown.
The mark [1] stands for this setting: day 14, 11 mM inosine vs glucose.
Setting [2] is: day 21, inosine supplementation.

`O=c1[nH]cnc2c1ncn2[C@@H]1O[C@H](CO)[C@@H](O)[C@H]1O` [inosine, Inosine]: the “percentage of live cells” value with CD19.28 CAR T cells (CD19.28 CAR T cells, 11 mM inosine vs 11 mM glucose, day 17) is “increase”. Further, in the assay on CD19.28 CAR T cells (CD19.28 CAR T cells, 11 mM inosine without glucose from day 4, vs 11 mM glucose, day 17 post-activation), the “frequency of Annexin V+ apoptotic cells” value is reported as “significantly lower frequency”. Besides, in the assay with CD19.28 CAR T cells (CD19.28z CAR T cell surface, day 14, 11 mM inosine vs glucose), the “CAR MFI” value is “increased”. Also, in the assay with CD19.28 CAR T cells (setting [1]), the CD4/CD8 ratio result was “neither percentage of CAR+ T cells nor CD4/CD8 ratio was affected” and the “percentage of CAR+ T cells” value is “neither percentage of CAR+ T cells nor CD4/CD8 ratio was affected”. Also, in the assay with HA CAR T cells, the CD62L expression result is reported as “significantly enhanced CD62L expression” and the “frequency of central memory cells” value is “significantly enhanced”. Also, in the assay on HA CAR T cells (listed as INO), the CD62L expression result is on record as “enhanced CD62L expression” and the “frequency of central memory cells” value is on record as “enhanced”. For the same compound, the “frequency of CD8+ cells” value in the assay on HA CAR T cells (HA CAR T cells in INO+ media vs control, day 14) is given as “increased the frequency of CD8+ cells”. In addition, in the assay with HA CAR T cells (HA CAR T cells in INO+ media, day 21), the “expression of memory markers CD62L and CCR7” value is “higher expression”. In the assay on HA CAR T cells (INO added on day 4, 7, 10 or 14 post-activation, assessed day 21), the “frequency of CD8+CD62L+ HA-CAR T cells” value was “increased frequency”. Moreover, in the assay on HA CAR T cells (setting [2]), the “frequency of terminally differentiated and effector cells” value is on record as “decreased frequency”; the “percentage of naïve and central memory HA CAR T cells” value was “elevated percentage”. For the same compound, in the assay on HA CAR T cells (flow cytometry, CD8+ and CD4+ HA-CAR T cells, day 21), the CD62L levels entry is listed as “higher levels”. The “inosine concentration range improving phenotype and function without complete inhibition of expansion (therapeutic window)” value with HA-CAR T cells fell in the range of 2.75 to 11 mM. Moreover, the “accessibility of RUNT, IRF and RHD family TF binding motifs” value in the assay with CD8+ HA-CAR T cells (ChromVAR and HOMER) is listed as “increased accessibility”. Further, the “genomic regions with changed chromatin accessibility” value in the assay on CD8+ HA-CAR T cells (D14 CD8+ cells, three individuals) is on record as “more than 10,000 genomic regions”. In the assay on CD8+ HA-CAR T cells (PCA of ATACseq), this compound came in with a PC1 variance of 57%.
